Reference: patent publication US10016383B2, “Inhibitors of metallo-β-lactamase-enzymes” (McMaster University, priority 2013, dated 2018)

Columns and labels:
[1] = target: NDM-1 (Klebsiella pneumoniae, UniProt C7C422); test: Incubation of AM-A with metalloenzymes in Zn2+-depleted buffer; type: biochemical; design: All β-lactamase overexpression constructs were generated without the leader peptide in a pET-28b plasmid containing a N-terminal His Tag; His tag (N, cleaved yes); SUMO (implied by the use of SUMO protease) (N, cleaved yes); made in house; host or cells: E. coli BL21(DE3); conditions: extended incubation, AM-A 0.5 mM
Protocol: Enzyme (500 nM) was incubated with AM-A (500 μM) for 10 minutes. 20 μL of the above was diluted with 180 μL nitrocefin or FAPGG substrate for the following final concentrations: Enzyme (50 nM), FAPGG (50 μM)/nitrocefin (20 μM), AM-A (50 μM). Buffer (50 mM HEPES pH 7.5, 300 mM NaCl) was stirred overnight with 2 g/100 mL Chelex-100 (Biorad; Richmond, Calif.). Assays were read in 96-well microplate format at 490 nm using a Spectramax reader (Molecular Devices) at 37° C.

[2] = tested on: IMP-7; test: as above; type: biochemical; conditions: extended incubation, AM-A 0.5 mM
Protocol: 20 μL of the above was diluted with 180 μL nitrocefin or FAPGG substrate for the following final concentrations: Enzyme (50 nM), FAPGG (50 μM)/nitrocefin (20 μM), AM-A (50 μM). Buffer (50 mM HEPES pH 7.5, 300 mM NaCl) was stirred overnight with 2 g/100 mL Chelex-100 (Biorad; Richmond, Calif.). Assays were read in 96-well microplate format at 490 nm using a Spectramax reader (Molecular Devices) at 37° C.

[3] = tested on: E. coli BW25113ΔbamBΔtolCΔaraDAB::pLac(blaNDM-1); test: Cell-based screen for NDM-1 inhibitors with sub-lethal meropenem; design: species or system Escherichia coli; conditions: in combination with meropenem
Protocol: A cell-based screen for inhibitors of the NDM-1 metallo-β-lactamase using a collection of natural product extracts derived from environmental microorganisms was performed. To increase the sensitivity of the screen to MBL inhibitor discovery a test strain of Escherichia coli BW25113 in which the bamB and tolC genes were independently deleted (E. coli BW25113ΔbamBΔtolC) was generated. BamB is involved in outer membrane porin assembly and disruption results in increased permeability to small molecules^19 and TolC is a part of the tripartite small molecule efflux systems such as AcrA-AcrB-TolC that serve to actively eliminate small molecules from the cell^20. Therefore, E. coli BW25113ΔbamBΔtolC increases the sensitivity of the screen to discovery of “hits”. This strain was further modified by integrating the blaNDM-1β-lactamase gene under control of the pLac promoter into the chromosome [E. coli BW25113ΔbamBΔtolCΔaraDAB::pLac(blaNDM-1)]. This strain was screened in the presence of a sub-lethal concentration of meropenem (of the minimum inhibitory concentration 0.125 μg/mL) in combination with ˜500 natural product extracts.
˜500 natural product extracts were screened against E. coli BW25113ΔbamBΔto1CΔaraDAB::pLac(blaNDM-1) in combination with 0.125 μg/mL meropenem. […] Z′ was determined to be 0.77, indicating an excellent screening window^22.

[4] = tested on: panel of 16 clinical CRE isolates; test: FIC index determination; type: cell-based, Enterobacteriaceae; conditions: meropenem and AM-A combinations; ≤0.5 defined as synergistic
Protocol: FIC values were determined by standard methods^27 setting up checkerboards with 8 concentrations of each meropenem and AM-A in serial ½ dilutions. Experiments were done in duplicate and the mean used for calculation. The MIC for each compound was the lowest concentration of compound showing no growth. The FIC for each compound was calculated as the concentration of the compound in the presence of co-compound for a well showing no growth, divided by the MIC for that compound. The FIC index is the sum of the two FICs.

[5] = tested on: K. pneumoniae N11-2218; test: Mouse lethal systemic infection, survival; type: in vivo, CD1 mice
From the text: All animals were housed in specific pathogen-free units in the Central Animal Facility at McMaster University. All experimental protocols were approved by, and performed in accordance with the McMaster Animal Research Ethics Board. Female CD1 mice were purchased from Charles River.
Mice were infected intraperitoneally (ip) with a dose of 2×10^6 colony forming units (cfu) of Klebsiella pneumoniae N11-2218 for all organ bacterial load experiments, or with a dose of 5×10^7cfu for all survival experiments. For all organ bacterial load experiments, mice were euthanized 48 hours post infection, and spleen and liver were harvested. Organs were placed into 1 mL sterile PBS on ice, and then homogenized (Mixer Mill 400; Retsch). Organ homogenates were then serially diluted in PBS, and plated on Brilliant Green agar (Oxoid) for cfu enumeration. For survival curves, mice were monitored for endpoint. For all experiments, mice were treated 30 minutes post infection with a specified subcutaneous dose of either PBS, meropenem, AM-A inhibitor, or a combination of both antibiotic and inhibitor.

[6] = in vivo; cited from earlier work

Sequence of NDM-1 (C7C422 29-270 limits assumed): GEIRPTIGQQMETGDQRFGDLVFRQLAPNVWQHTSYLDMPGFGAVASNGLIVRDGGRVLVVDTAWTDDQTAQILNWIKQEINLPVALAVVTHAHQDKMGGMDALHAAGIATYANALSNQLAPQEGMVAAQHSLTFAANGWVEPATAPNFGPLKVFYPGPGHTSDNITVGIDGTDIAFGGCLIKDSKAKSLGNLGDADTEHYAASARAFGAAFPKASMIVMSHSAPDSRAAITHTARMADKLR

SMILES: N[C@H](CN[C@H](CN[C@@H](CC(=O)O)C(=O)O)C(=O)O)C(=O)O [AM-A, aspergillomarasmine A]
- inactivation of NDM-1 [1]: complete inactivation
- inhibition of activity in IMP-7 [2]: ~70%
- restoration of meropenem antibiotic activity [3]: restored meropenem activity
- Fractional inhibitory concentration (FIC) index [4]: < 0.1
- prevention of lethal infection ([5]; monotherapy (alone)): unable to prevent lethal infection
- survival ([5]; single dose of combination meropenem 10 mg/kg + AM-A 30 mg/kg, 5 days following infection): > 95%
- effect on mean atrial blood pressure [6]: no effect
